According to ChEMBL document CHEMBL1147312, “1-Aryl Tetralin Lignans from Larrea tridentata” (J Nat Prod, 1989):
The source made the active and inactive calls. The calls are words filed in the database; no cut-off is given here.

Tested on: Rattus norvegicus
Experiment: Anti-implantation activity in po dosed rat
Type: functional, organism-based

C[C@H]1[C@H](c2ccc(O)c(O)c2)c2cc(O)c(O)cc2C[C@H]1C
Activity: inactive

C[C@H]1[C@H](c2ccc(O)cc2)c2cc(O)c(O)cc2C[C@H]1C
Activity: Active
